Results published in PubChem BioAssay (NCI).
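48-hour exposure; five concentrations; linearly interpolated endpoints. Abbreviation: GI50, concentration required for 50% inhibition of growth. The concentration for full growth arrest is given as TGI.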 Where a SMILES comes first, the peptide text is derived from it. [ ]: non-standard residue; d: D form. The star is where a group is joined. ξ: configuration not given here. ξF = NC(Cc1ccccc1)C(=O)O; Cbz = O=C(OCc1ccccc1)*; Aib = CC(C)(N)C(=O)O

Legend:
Experiment in all cases: inhibition of tumour cell growth, NCI panel, 48 h
[1] = tested on: A498 renal
[2] = tested on: A549 NSCLC
[3] = tested on: HL-60(TB) leukemia
[4] = tested on: IGROV1 ovarian
[5] = tested on: K-562 leukemia
[6] = tested on: MOLT-4 leukemia
[7] = tested on: RPMI-8226 leukemia
[8] = tested on: SN12C renal
[9] = tested on: SR leukemia
[10] = tested on: MCF7 breast

SMILES | TGI [1] [µM] | TGI [2] [µM] | TGI [3] [µM] | TGI [4] [µM] | TGI [5] [µM] | TGI [6] [µM] | TGI [7] [µM] | TGI [8] [µM] | TGI [9] [µM] | TGI [10] [µM] | GI50 [1] [µM] | GI50 [2] [µM] | GI50 [3] [µM] | GI50 [4] [µM] | GI50 [5] [µM] | GI50 [10] [µM] | GI50 [6] [µM] | GI50 [7] [µM] | GI50 [8] [µM] | GI50 [9] [µM]
CCCCOCc1cc(CN2CCN(C)CC2)c(O)c2ncccc12 | 78.9 | > 100 | 13.8 | 97.3 | > 100 | 77.2 | 26.3 | > 100 | 33.2 | – | – | – | – | – | – | – | – | – | – | –
Cc1ccc(C(O)(c2ccc(C)cc2)c2ccccn2)cc1 | > 100 | > 100 | – | > 100 | > 100 | – | > 100 | > 100 | – | – | – | – | – | – | – | – | – | – | – | –
CC(=O)ON1C(=O)c2cccc3cccc(c23)C1=O | 71.5 | > 100 | 45.5 | > 100 | > 100 | 43 | 53.4 | – | – | > 100 | – | – | – | – | – | – | – | – | – | –
C(=N\OCCc1ccccc1)/c1cccnc1 | – | > 100 | > 100 | > 100 | > 100 | > 100 | > 100 | > 100 | – | > 100 | – | – | – | – | – | – | – | – | – | –
COC(=O)C(C)(C)NC(=O)C(Cc1ccccc1)NC(=O)C(C)(C)NC(=O)OCc1ccccc1 (stereo not given) (Cbz-[Aib]-[ξF]-[Aib]-OMe) | > 100 | > 100 | > 100 | > 100 | > 100 | > 100 | > 100 | – | – | > 100 | – | – | – | – | – | – | – | – | – | –
NCCSCc1ccccc1Cl | 96.2 | > 100 | – | > 100 | 76.6 | 86.3 | – | > 100 | 55.7 | – | – | – | – | – | – | – | – | – | – | –
Nc1nc2ccc(OCC(O)CN3CCCCC3)cc2[n+]([O-])n1 (stereo not given) | > 100 | > 100 | > 100 | – | > 100 | > 100 | > 100 | > 100 | > 100 | > 100 | – | – | – | – | – | – | – | – | – | –
Nc1c(-c2ccccc2[N+](=O)[O-])nc2ccccn12 | – | – | > 100 | > 100 | > 100 | > 100 | > 100 | > 100 | > 100 | – | – | – | – | – | – | – | – | – | – | –
COc1cc(-c2n/c(=C\c3c(O)[nH]c4cc(Cl)ccc34)cc3c2=Nc2ccccc2-3)cc(OC)c1OC | 27.9 | 21.9 | > 100 | 51.1 | 48.6 | 8.35 | > 100 | 26.1 | 6.35 | 13.6 | 7.12 | 4.8 | 84.4 | 5.56 | 3.57 | 2.71 | 2.72 | 67.1 | 4.15 | 2.38
CC(C)(CCCCC(C)(C)C1NC(=O)N1)C1NC(=O)N1 | > 10 | > 10 | > 10 | > 10 | > 10 | > 10 | > 10 | > 10 | – | > 10 | – | – | – | – | – | – | – | – | – | –
c1cncc(O[Si](Oc2cccnc2)(Oc2cccnc2)Oc2cccnc2)c1 | – | > 100 | – | > 100 | – | > 100 | – | > 100 | > 100 | – | – | – | – | – | – | – | – | – | – | –
C[CH2][Ge]([CH2]C)([CH2]C)[O]C(=O)CCC(=O)[O][Ge]([CH2]C)([CH2]C)[CH2]C | – | > 100 | – | > 100 | > 100 | > 100 | > 100 | > 100 | > 100 | – | – | 68.5 | – | > 100 | 29.6 | – | 39 | 0.249 | > 100 | 40.3
